# Like-named read-outs stand apart in the source and are kept apart here.
# Legend:
# Assay type in all cases: cell-based
# [1] = test system: IKZF2; experiment: GFP-IKZF2 cellular degradation assay (eGFP fusion/mCherry reporter, Flip-In 293 cells); conditions: Flip-In 293 cells stably expressing IKZF2 GFP fusion with mCherry reporter, 5 h
# Procedure: IKZF1A and IKZF2A were subcloned into mammalian pcDNA5/FRT Vector (Ampicillin and Hygromycin B resistant) modified to contain MCS-eGFP-P2A-mCherry. Stable cell lines expressing eGFP-protein fusion and mCherry reporter were generated using Flip-In 293 system. Plasmid (0.3 μg) and pOG44 (4.7 μg) DNA were preincubated in 100 μL of Opti-MEM™ I (Gibco™, Life Technologies™) media containing 0.05 mg/mL Lipofectamine™ 2000 (Invitrogen™) for 20 min and added to Flip-In 293 cells containing 1.9 mL of DMEM media (Gibco™, Life Technologies™) per well in a 6-well plate format (Falcon, 353046). Cells were propagated for 48 h and were then transferred into a 10 cm^2 plate (Corning, 430165) in DMEM media containing 50 μg/mL of Hygromycin B (REF 10687010, Invitrogen™) as a selection marker. Following 2-3 passage cycle, FACS (FACSAria™ II, BD) was used to enrich for cells expressing eGFP and mCherry.
# (§1) Cells stably expressing the IKZF1A, or IKZF2A GFP fusions with mCherry reporter were seeded at 30-50% confluency in 384-well plates with 50 μL FluoroBrite™ DMEM media (Thermo Fisher Scientific™ A18967) containing 10% FBS per well a day before compound treatment. Compound titrations were dispensed using a D300e Digital Dispenser (HP), normalized to 0.5% DMSO, and incubated with cells for 5 hours.
# (§2) The assay plate was imaged immediately using an Acumen High Content Imager (TTP Labtech) with 488 nm and 561 nm lasers in […] per well format. The resulting images were analyzed using CellProfiler (Carpenter et al., Genome Biol. 2006, 7:R100). A series of image analysis steps (‘image analysis pipeline’) was constructed. First, the red and green channels were aligned and cropped to target the middle of each well (to avoid analysis of heavily clumped cells at the edges), and a background illumination function was calculated for both red and green channels of each well individually and subtracted to correct for illumination variations across the 384-well plate from various sources of error. An additional step was then applied to the green channel to suppress the analysis of large auto fluorescent artifacts and enhance the analysis of cell specific fluorescence by way of selecting for objects under a given size, 30 A.U., and with a given shape, speckles. mCherry-positive cells were then identified in the red channel filtering for objects between 8-60 pixels in diameter and using intensity to distinguish between clumped objects. The green channel was then segmented into GFP positive and negative areas and objects were labeled as GFP positive if at least 40% of it overlapped with a GFP positive area. The fraction of GFP-positive cells/mCherry-positive cells in each well was then calculated, and the green and red images were rescaled for visualization. The concentrations that lead to half degradation at 5 h (DC50, 5h) were calculated using the nonlinear fit variable slope model (GraphPad Software).
# [2] = target: T1, IKZF1 (Homo sapiens, UniProt Q13422); experiment: GFP-IKZF1 cellular degradation assay (eGFP fusion/mCherry reporter, Flip-In 293 cells)
# T1 construct: expressed in transfected cells
# T1 sequence (Q13422 83-213 isoform Q13422-7 limits assumed): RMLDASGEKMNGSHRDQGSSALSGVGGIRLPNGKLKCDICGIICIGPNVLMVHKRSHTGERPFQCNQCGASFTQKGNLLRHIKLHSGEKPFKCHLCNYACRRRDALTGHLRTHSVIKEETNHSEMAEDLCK
# T1 sequence (Q96SW2 whole entry partner, the tested form may be a part): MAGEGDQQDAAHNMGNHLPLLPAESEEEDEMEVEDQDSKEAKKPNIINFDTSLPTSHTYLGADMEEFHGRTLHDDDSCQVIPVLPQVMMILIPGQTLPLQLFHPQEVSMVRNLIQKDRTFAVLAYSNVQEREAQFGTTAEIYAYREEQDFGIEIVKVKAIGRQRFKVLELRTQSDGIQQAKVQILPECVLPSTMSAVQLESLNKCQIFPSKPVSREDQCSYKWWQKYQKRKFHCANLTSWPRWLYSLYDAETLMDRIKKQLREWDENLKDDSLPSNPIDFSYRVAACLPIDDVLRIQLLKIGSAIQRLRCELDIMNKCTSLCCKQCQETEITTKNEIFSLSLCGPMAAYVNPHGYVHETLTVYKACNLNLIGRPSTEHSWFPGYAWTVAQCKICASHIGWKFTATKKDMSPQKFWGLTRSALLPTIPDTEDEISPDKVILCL
# T1 sequence (Q16531 whole entry partner, the tested form may be a part): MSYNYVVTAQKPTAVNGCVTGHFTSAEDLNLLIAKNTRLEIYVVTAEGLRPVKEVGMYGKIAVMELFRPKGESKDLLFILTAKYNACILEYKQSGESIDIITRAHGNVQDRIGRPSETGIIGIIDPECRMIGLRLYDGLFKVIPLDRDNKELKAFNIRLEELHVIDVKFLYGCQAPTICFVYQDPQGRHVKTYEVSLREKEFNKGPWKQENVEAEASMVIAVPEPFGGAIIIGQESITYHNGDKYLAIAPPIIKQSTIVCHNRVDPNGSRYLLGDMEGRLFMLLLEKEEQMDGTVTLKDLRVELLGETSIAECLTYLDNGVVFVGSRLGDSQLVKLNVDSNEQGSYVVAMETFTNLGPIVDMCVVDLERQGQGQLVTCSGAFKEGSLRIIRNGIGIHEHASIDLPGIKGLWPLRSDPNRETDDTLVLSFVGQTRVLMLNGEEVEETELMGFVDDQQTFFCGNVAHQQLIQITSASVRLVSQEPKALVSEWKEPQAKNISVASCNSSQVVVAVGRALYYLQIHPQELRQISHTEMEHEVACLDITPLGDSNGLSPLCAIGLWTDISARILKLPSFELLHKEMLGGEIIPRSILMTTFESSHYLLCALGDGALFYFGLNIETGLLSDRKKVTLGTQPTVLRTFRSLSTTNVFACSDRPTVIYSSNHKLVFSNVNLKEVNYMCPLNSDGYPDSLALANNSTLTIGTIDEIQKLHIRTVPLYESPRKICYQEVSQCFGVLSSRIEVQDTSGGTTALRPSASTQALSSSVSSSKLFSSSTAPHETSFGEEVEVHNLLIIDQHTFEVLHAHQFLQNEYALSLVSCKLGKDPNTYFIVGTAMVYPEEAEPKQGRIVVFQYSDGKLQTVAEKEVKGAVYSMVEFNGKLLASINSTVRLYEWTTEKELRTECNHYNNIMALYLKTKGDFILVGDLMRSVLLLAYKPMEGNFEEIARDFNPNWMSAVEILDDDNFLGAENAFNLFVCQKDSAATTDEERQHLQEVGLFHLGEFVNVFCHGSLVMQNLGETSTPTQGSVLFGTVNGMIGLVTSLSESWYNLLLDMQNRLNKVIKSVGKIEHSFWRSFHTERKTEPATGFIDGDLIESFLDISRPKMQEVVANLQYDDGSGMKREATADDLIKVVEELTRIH
# Procedure: IKZF1A and IKZF2A were subcloned into mammalian pcDNA5/FRT Vector (Ampicillin and Hygromycin B resistant) modified to contain MCS-eGFP-P2A-mCherry. […] Following 2-3 passage cycle, FACS (FACSAria™ II, BD) was used to enrich for cells expressing eGFP and mCherry.
# as §1
# as §2, with “The resulting images were analyzed using CellProfiler (Carpenter et al., Genome Biol. 2006, 7:R100).” left out
# [3] = target: T2, IKZF2 (Homo sapiens, UniProt Q96SW2+Q9UKS7); experiment: HiBit-IKZF2 degradation assay in Molt4 cells
# T2 construct: knocked into the endogenous IKZF2 or IKZF1 locus of Molt4 cells; endogenous in cells; host or cells: Molt4 (CRISPR/Cas9 HiBit knock-in)
# T2 sequence (Q9UKS7 whole entry): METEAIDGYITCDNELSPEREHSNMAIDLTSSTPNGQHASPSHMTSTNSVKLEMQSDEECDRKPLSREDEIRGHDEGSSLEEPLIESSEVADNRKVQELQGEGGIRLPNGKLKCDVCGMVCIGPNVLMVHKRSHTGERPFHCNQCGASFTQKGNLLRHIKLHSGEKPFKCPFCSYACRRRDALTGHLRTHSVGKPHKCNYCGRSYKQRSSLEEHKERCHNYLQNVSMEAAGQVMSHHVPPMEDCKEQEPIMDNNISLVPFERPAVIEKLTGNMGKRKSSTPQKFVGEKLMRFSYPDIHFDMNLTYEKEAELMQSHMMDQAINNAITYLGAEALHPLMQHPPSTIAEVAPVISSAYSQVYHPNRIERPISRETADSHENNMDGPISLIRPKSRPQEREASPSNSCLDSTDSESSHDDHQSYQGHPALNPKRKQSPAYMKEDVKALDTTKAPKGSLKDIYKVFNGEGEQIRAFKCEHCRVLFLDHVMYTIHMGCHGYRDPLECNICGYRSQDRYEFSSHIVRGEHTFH
# T2 sequence (Q96SW2 whole entry): as the sequence (Q96SW2 whole entry partner, the tested form may be a part) above
# T2 sequence (Q16531 whole entry partner): as the sequence (Q16531 whole entry partner, the tested form may be a part) above
# Procedure: (§3) The HiBit tag was knocked into the endogenous IKZF2 or IKZF1 locus of Molt4 cells to generate a HiBit-IKZF2 or HiBit-IKZF1 fusion proteins via CRISPR/Cas9 gene editing. Cells were then treated with a 12 point concentration curve of the indicated compounds, and luminescence (corresponding to Helios abundance) was detected after 6 hours using the Nano-Glo® HiBit Lytic Detection system (Promega™). The concentration necessary to achieve 50% degradation (DC50) was calculated using Prism (GraphPad).
# [4] = target: T3, IKZF1 (Homo sapiens, UniProt Q13422+Q96SW2); experiment: HiBit-IKZF1 degradation assay in Molt4 cells
# T3 construct: knocked into the endogenous IKZF2 or IKZF1 locus of Molt4 cells; endogenous in cells; host or cells: Molt4 (CRISPR/Cas9 HiBit knock-in)
# T3 sequence (Q13422 whole entry): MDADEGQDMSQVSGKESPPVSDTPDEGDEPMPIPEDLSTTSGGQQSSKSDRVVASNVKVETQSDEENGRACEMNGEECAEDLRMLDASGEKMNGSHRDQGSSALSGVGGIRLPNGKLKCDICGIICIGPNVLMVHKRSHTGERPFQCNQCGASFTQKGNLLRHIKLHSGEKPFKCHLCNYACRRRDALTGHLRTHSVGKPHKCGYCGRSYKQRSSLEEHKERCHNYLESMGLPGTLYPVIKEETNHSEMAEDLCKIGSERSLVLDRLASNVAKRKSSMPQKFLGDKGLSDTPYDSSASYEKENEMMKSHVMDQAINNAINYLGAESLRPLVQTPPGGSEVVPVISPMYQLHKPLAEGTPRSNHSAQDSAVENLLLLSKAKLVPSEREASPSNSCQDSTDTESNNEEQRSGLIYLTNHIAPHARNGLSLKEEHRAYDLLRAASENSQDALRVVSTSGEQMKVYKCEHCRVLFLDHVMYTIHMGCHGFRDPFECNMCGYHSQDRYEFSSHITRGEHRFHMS
# T3 sequence (Q96SW2 whole entry): as the sequence (Q96SW2 whole entry partner, the tested form may be a part) above
# T3 sequence (Q16531 whole entry partner): as the sequence (Q16531 whole entry partner, the tested form may be a part) above
# Procedure: as §3
# [5] = Flip-In 293 cells stably expressing IKZF1 GFP fusion with mCherry reporter, 5 h; read-out: GFP IKZF1 DC50
# [6] = read-out: GFP IKZF1 DC50; Flip-In 293 cells stably expressing IKZF1 GFP fusion with mCherry reporter, 5 h
# [7] = read-out: IKZF2 DC50; Molt4 cells with endogenous HiBit-IKZF2 knock-in, 6 hours, Nano-Glo HiBit luminescence
# [8] = read-out: IKZF1 DC50; Molt4 cells with endogenous HiBit-IKZF1 knock-in, 6 hours, Nano-Glo HiBit luminescence
compound,measurement,setting,value
CC(c1cccc(NC2=CC(=O)N(C3CCC(=O)NC3=O)C2=O)c1)N1CC(Cc2ccccc2)C1 (centres unmarked) [Compound 26],DC50,[1],8.9 nM
same,DC50,[2]; [5],2.8 nM
CC(c1cccc(NC2=CC(=O)N(C3CCC(=O)NC3=O)C2=O)c1)N1CC(Oc2ccccc2)C1 (centres unmarked) [Compound 27],DC50,[1],19 nM
same,DC50,[2]; [5],6.4 nM
"CN(CCc1ccc(C(F)(F)F)c(Cl)c1)C(C)(C)c1cccc(NC2=CC(=O)N(C3CCC(=O)NC3=O)C2=O)c1 (centres unmarked) [Compound 67, 3-(3-((3-(2-((3-chloro-4-(trifluoromethyl)phenethyl)(methyl)amino)propan-2-yl)phenyl)-amino)-2,5-dioxo-2,5-dihydro-1H-pyrrol-1-yl)piperidine-2,6-dione]",DC50,"[3]; Molt4 cells with endogenous HiBit-IKZF2 knock-in, 6 hours, Nano-Glo HiBit luminescence; read-out: IKZF2 DC50",25 nM
same,DC50,"[4]; Molt4 cells with endogenous HiBit-IKZF1 knock-in, 6 hours, Nano-Glo HiBit luminescence; read-out: IKZF1 DC50",47 nM
same,DC50,[1],12 nM
same,DC50,[2]; [5],11 nM
"CN(C)CC(CC(=O)Nc1ccc(C(F)(F)F)c(Cl)c1)c1cccc(NC2=CC(=O)N(C3CCC(=O)NC3=O)C2=O)c1 (centres unmarked) [Compound 73, N-(3-chloro-4-(trifluoromethyl)phenyl)-4-(dimethylamino)-3-(3-((1-(2,6-dioxopiperidin-3-yl)-2,5-dioxo-2,5-dihydro-1H-pyrrol-3-yl)amino)phenyl)butanamide]",DC50,[1],4.4 nM
same,DC50,[2]; [5],5.2 nM
CC(C)(NCc1cccc(C(F)(F)F)c1)c1cccc(NC2=CC(=O)N(C3CCC(=O)NC3=O)C2=O)c1 (centres unmarked) [Compound 64],DC50,[1],9.2 nM
same,DC50,[2]; [5],6.8 nM
CC(CC(=O)Nc1cccnc1Cl)c1cccc(NC2=CC(=O)N(C3CCC(=O)NC3=O)C2=O)c1 (centres unmarked) [Compound 7],DC50,[1],48 nM
same,DC50,[2]; [5],23 nM
"CN(CCc1ccc(C(F)(F)F)c(Cl)c1)Cc1cccc(NC2=CC(=O)N(C3CCC(=O)NC3=O)C2=O)c1 (centres unmarked) [Compound 48, 3-(3-((-(((3-chloro-4-(trifluoromethyl)phenethyl)(methyl)amino)methyl)phenyl)amino)-2,5-dioxo-2,5-dihydro-1H-pyrrol-1-yl)piperidine-2,6-dione]",DC50,[1],19 nM
same,DC50,[2]; [6],3.7 nM
O=C1CCC(N2C(=O)C=C(Nc3cccc([C@H]4CNCC4C(=O)Nc4cccc(C(F)(F)F)c4)c3)C2=O)C(=O)N1 (some centres unmarked) [Compound 23],DC50,[1],101 nM
same,DC50,[2]; [5],38 nM
"Cc1ccc(NC(=O)CC(c2cccc(NC3=CC(=O)N(C4CCC(=O)NC4=O)C3=O)c2)C(C)C)cc1Cl (centres unmarked) [Compound 30, N-(3-chloro-4-methylphenyl)-3-(3-((1-(2,6-dioxopiperidin-3-yl)-2,5-dioxo-2,5-dihydro-1H-pyrrol-3-yl)amino)phenyl)-4-methylpentanamide]",DC50,[1],2.2 nM
same,DC50,[2]; [5],50 nM
"CC(C)(NCCc1ccc(C(F)(F)F)c(Cl)c1)c1cccc(NC2=CC(=O)N(C3CCC(=O)NC3=O)C2=O)c1 (centres unmarked) [Compound 66, 3-(3-((3-(2-((3-chloro-4-(trifluoromethyl)phenethyl)amino)propan-2-yl)phenyl)amino)-2,5-dioxo-2,5-dihydro-1H-pyrrol-1-yl)piperidine-2,6-dione]",DC50,[3]; [7],2.3 nM
same,DC50,[4]; [8],3.8 nM
same,DC50,[1],1.2 nM
same,DC50,[2]; [6],1.1 nM
Cc1ccc(NC(=O)CC2(c3cccc(NC4=CC(=O)N(C5CCC(=O)NC5=O)C4=O)c3)CCOCC2)cc1Cl (centres unmarked) [Compound 18],DC50,[1],8.8 nM
same,DC50,[2]; [5],39 nM
Cc1ccc(NC(=O)C2CC2c2cccc(NC3=CC(=O)N(C4CCC(=O)NC4=O)C3=O)c2)cc1Cl (centres unmarked) [Compound 21],DC50,[1],4.4 nM
same,DC50,[2]; [5],2 nM
"CC(C)(CCNc1ccc(C(F)(F)F)c(Cl)c1)c1cccc(NC2=CC(=O)N(C3CCC(=O)NC3=O)C2=O)c1 (centres unmarked) [Compound 80, 3-(3-((3-(4-((3-chloro-4-(trifluoromethyl)phenyl)amino)-2-methylbutan-2-yl)phenyl)amino)-2,5-dioxo-2,5-dihydro-1H-pyrrol-1-yl)piperidine-2,6-dione]",DC50,[1],24 nM
same,DC50,[2]; [5],50 nM
CC(c1cccc(NC2=CC(=O)N(C3CCC(=O)NC3=O)C2=O)c1)N1CC(c2ccccc2)C1 (centres unmarked) [Compound 25],DC50,[1],13 nM
same,DC50,[2]; [5],5.8 nM
"Cc1ccc(NC(=O)CN(C)c2cccc(NC3=CC(=O)N(C4CCC(=O)NC4=O)C3=O)c2)cc1Cl (centres unmarked) [Compound 44, N-(3-chloro-4-methylphenyl)-2-[(3-{[1-(2,6-dioxopiperidin-3-yl)-2,5-dioxo-2,5-dihydro-1H-pyrrol-3-yl]amino}phenyl)(methyl)amino]acetamide]",DC50,[1],6.9 nM
same,DC50,[2]; [5],3.7 nM
CC(CC(=O)Nc1ccnc(Cl)c1)c1cccc(NC2=CC(=O)N(C3CCC(=O)NC3=O)C2=O)c1 (centres unmarked) [Compound 9],DC50,[1],85 nM
same,DC50,[2]; [5],80 nM
"CCC(NCCc1ccc(C(F)(F)F)c(Cl)c1)c1cccc(NC2=CC(=O)N(C3CCC(=O)NC3=O)C2=O)c1 (centres unmarked) [Compound 60, 3-(3-((3-(1-((3-chloro-4-(trifluoromethyl)phenethyl)-amino)propyl)phenyl)amino)-2,5-dioxo-2,5-dihydro-1H-pyrrol-1-yl)piperidine-2,6-dione]",DC50,[3]; [7],42 nM
same,DC50,[4]; [8],240 nM
same,DC50,[1],6 nM
same,DC50,[2]; [6],18 nM
CC(CC(=O)Nc1ccc(Cl)nc1)c1cccc(NC2=CC(=O)N(C3CCC(=O)NC3=O)C2=O)c1 (centres unmarked) [Compound 8],DC50,[1],17 nM
same,DC50,[2]; [5],10 nM
O=C1CCC(N2C(=O)C=C(Nc3cccc(C4CC(C(=O)Nc5cccc(C(F)(F)F)c5)C4)c3)C2=O)C(=O)N1 (centres unmarked) [Compound 22],DC50,[1],134 nM
same,DC50,[2]; [5],14 nM

# — patent US20230192644A1, “PIPERIDINE-2,6-DIONES AS SMALL MOLECULE DEGRADERS OF HELIOS AND METHODS OF USE” (DANA-FARBER CANCER INSTITUTE, INC., priority 2020, published 2023)
